Measurements as given in patent US10662161B2, “Pyrimidines and uses thereof” (Regents of the University of Minnesota, priority 2017, dated 2020).
Several values for one entry are separate records, joined by “and”; a condition that tells them apart may be missing. Identical values can stand only once. Entries after “also recorded” stand apart in the source; their conditions may differ. Counter-ions that a name gives are not always drawn.

biological target: T1, human TLR8 (Homo sapiens, UniProt Q9NR97); test: Human TLR8-specific reporter gene assay (NF-κB induction, sAP) in HEK293 cells; type: cell-based; details: primary screen, HEK293 hTLR8 reporter cells; read-out: EC50, TLR8 agonistic activity (hTLR8-specific NF-κB induction)
T1 construct: expressed in transfected cells; host or cells: HEK293
T1 sequence (Q9NR97 27-1041): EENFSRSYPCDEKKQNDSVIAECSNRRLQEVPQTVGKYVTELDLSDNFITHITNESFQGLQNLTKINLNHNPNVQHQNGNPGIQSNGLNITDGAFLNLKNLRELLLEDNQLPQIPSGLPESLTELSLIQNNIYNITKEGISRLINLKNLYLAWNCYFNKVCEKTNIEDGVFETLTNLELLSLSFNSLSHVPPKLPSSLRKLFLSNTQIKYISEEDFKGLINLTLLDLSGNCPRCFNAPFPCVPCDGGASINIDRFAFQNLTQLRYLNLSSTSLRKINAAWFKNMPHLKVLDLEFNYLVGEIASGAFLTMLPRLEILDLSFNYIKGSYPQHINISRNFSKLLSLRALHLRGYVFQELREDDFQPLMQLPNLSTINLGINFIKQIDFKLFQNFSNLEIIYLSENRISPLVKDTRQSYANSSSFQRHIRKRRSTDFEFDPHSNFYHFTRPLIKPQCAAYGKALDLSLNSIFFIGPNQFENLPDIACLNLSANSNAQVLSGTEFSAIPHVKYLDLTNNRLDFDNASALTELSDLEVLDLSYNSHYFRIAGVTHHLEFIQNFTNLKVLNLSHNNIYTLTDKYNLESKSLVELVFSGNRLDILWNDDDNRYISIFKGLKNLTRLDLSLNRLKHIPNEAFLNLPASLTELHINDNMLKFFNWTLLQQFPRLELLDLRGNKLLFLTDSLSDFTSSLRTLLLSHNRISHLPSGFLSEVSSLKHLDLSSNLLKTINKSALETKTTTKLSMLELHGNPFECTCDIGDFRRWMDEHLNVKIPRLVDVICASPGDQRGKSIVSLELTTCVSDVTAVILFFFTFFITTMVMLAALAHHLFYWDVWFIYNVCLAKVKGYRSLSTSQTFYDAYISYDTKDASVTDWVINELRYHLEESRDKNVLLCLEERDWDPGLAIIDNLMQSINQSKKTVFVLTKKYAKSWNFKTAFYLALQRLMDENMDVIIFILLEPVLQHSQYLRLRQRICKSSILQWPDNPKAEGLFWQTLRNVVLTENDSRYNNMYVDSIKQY
Description: Human TLR8-Specific Reporter Gene Assays (NF-κB Induction), and TLR-2/-3/-4/-5/-7/-9 Counter-Screens:
The induction of NF-κB was quantified using human TLR-2/-3/-4/-5/-7/-8/-9-specific, rapid-throughput, liquid handler-assisted reporter gene assays as previously described by us.^31,25, 32,33 HEK293 cells stably co-transfected with the appropriate hTLR and secreted alkaline phosphatase (sAP) were maintained in HEK-Blue™ Selection medium. Stable expression of secreted alkaline phosphatase (sAP) under control of NF-κB/AP-1 promoters is inducible by appropriate TLR agonists, and extracellular sAP in the supernatant is proportional to NF-κB induction. Reporter cells were incubated at a density of ˜10^5 cells/ml in a volume of 80 μl/well, in 384-well, flat-bottomed, cell culture-treated microtiter plates in the presence of graded concentrations of stimuli. sAP was assayed spectrophotometrically using an alkaline phosphatase-specific chromogen (present in HEK-detection medium as supplied by InvivoGen) at 620 nm.

| Structure (SMILES) | EC50 |
| --- | --- |
| CCCCNc1cc(C)nc(N)n1 [Compound 15, N^4-Butyl-6-methylpyrimidine-2,4-diamine] | 22000 nM |
| CCCCNc1ccnc(N)n1 [Compound 16, N^4-Butylpyrimidine-2,4-diamine] | 73200 nM |
| CCCCNc1nc(N)nc(C)c1CCCN.Cl.Cl [Compound 27a, 5-(3-Aminopropyl)-N^4-butyl-6-methylpyrimidine-2,4-diamine dihydrochloride] | 2310 nM |
| CCCCNc1nc(N)nc(-c2ccccc2)c1CCCCN.Cl.Cl [Compound 32b, 5-(4-Aminobutyl)-N^4-butyl-6-phenylpyrimidine-2,4-diamine dihydrochloride] | 2700 nM |
| CCCCNc1nc(N)nc(-c2ccccc2)c1CCCCCN [Compound 32c, 5-(5-Aminopentyl)-N^4-butyl-6-phenylpyrimidine-2,4-diamine dihydrochloride] | 2350 nM |

same assay, conditions: primary screen, reporter gene assay

| Structure (SMILES) | TLR8-agonistic activity (in words) |
| --- | --- |
| CCCCN(C)c1nc(N)nc(C)c1I [Compound 4e, N^4-Butyl-5-iodo-N^4,6-dimethylpyrimidine-2,4-diamine] | abrogated activity |
| CCCCN(Cc1ccccc1)c1nc(N)nc(C)c1I [Compound 4f, N^4-Benzyl-N^4-butyl-5-iodo-6-methylpyrimidine-2,4-diamine] | abrogated activity |
| CCCCOc1nc(N)nc(C)c1I [Compound 4g, 4-Butoxy-5-iodo-6-methylpyrimidin-2-amine] | inactive |
| CCCCSc1nc(N)nc(C)c1I [Compound 4h, 4-(Butylthio)-5-iodo-6-methylpyrimidin-2-amine] | inactive |
| CCCC#Cc1cc(C)nc(N)n1 [Compound 4i, 4-Methyl-6-(pent-1-yn-1-yl)pyrimidin-2-amine] | inactive |
| CCCCCc1cc(C)nc(N)n1 [Compound 4j, 4-Methyl-6-pentylpyrimidin-2-amine] | inactive |
| CCCCCc1nc(N)nc(C)c1I [Compound 4k, 5-iodo-4-methyl-6-pentylpyrimidin-2-amine] | inactive |
| CCCCNc1nc(N)nc(C)c1Cl [Compound 6a, N^4-Butyl-5-chloro-6-methylpyrimidine-2,4-diamine] | substantial losses in potency |
| CCCCNc1nc(N)nc(C)c1Br [Compound 6b, 5-Bromo-N^4-butyl-6-methylpyrimidine-2,4-diamine] | substantial losses in potency |
| CCCCNc1nc(N)nc(C)c1F [Compound 6c, N^4-Butyl-5-fluoro-6-methylpyrimidine-2,4-diamine] | substantial losses in potency |
| CCCCNc1nc(N)ncc1I [Compound 17, N^4-Butyl-5-iodopyrimidine-2,4-diamine] | entirely without measurable TLR8-agonistic activity |
| CCCCNc1nc(N)nc(C)c1Cc1ccccc1 [Compound 24, 5-Benzyl-MN-butyl-6-methylpyrimidine-2,4-diamine] | diminution of activity, exhibiting greatly attenuated area-under-the curve |
| CCCCNc1nc(N)nc(C)c1CCCCCN.Cl.Cl [Compound 27c, 5-(5-Aminopentyl)-MN-butyl-6-methylpyrimidine-2,4-diamine dihydrochloride] | appeared to plateau |
| CCCCNc1nc(N)nc(-c2ccccc2)c1I [Compound 29, N^4-Butyl-5-iodo-6-phenylpyrimidine-2,4-diamine] | inactive |

same assay, conditions: reference printed as 4b (22 μM)

| Structure (SMILES) | fold increase in TLR8 potency relative to that of 4b (22 μM) |
| --- | --- |
| CCCCNc1nc(N)nc(C)c1CCCN.Cl.Cl [Compound 27a, 5-(3-Aminopropyl)-N^4-butyl-6-methylpyrimidine-2,4-diamine dihydrochloride] | increased nearly ten-fold |

same assay, conditions: relative to 4b

| Structure (SMILES) | fold less active than 4b (TLR8 EC50) |
| --- | --- |
| CCCCNc1cc(C)nc(N)n1 [Compound 15, N^4-Butyl-6-methylpyrimidine-2,4-diamine] | ca. fourteen-fold less active |

same assay, conditions: reporter gene assays with TLR-2/-3/-4/-5/-7/-9 counter-screens

| Structure (SMILES) | TLR8 specificity/selectivity (in words) |
| --- | --- |
| CCCCNc1nc(N)nc(C)c1I [Compound 4b, N^4-Butyl-5-iodo-6-methylpyrimidine-2,4-diamine] | pure TLR8 agonist; also recorded: bona fide TLR8-specific agonist |

system: human peripheral blood mononuclear cells (hPBMC); test: Multiplexed immunoassays for cytokine and chemokine induction in human PBMCs; type: cell-based; details: 41-analyte multiplexed immunoassay
Method: Immunoassays for Cytokines.
Fresh human peripheral blood mononuclear cells (hPBMC) were isolated from human blood obtained by venipuncture in Cell Preparation Tubes (CPT, Beckton-Dickinson) with informed consent and as per guidelines approved by the University of Minnesota Human Subjects Experimentation Committee. Aliquots of PBMCs (10^5 cells in 100 µL/well) were stimulated for 16 h with graded concentrations of test compounds. Supernatants were isolated by centrifugation, and were assayed in duplicates using analyte-specific multiplexed cytokine/chemokine bead array assays (HCYTMAG-60K-PX29 MILLIPLEX MAP Human Cytokine/Chemokine Magnetic Bead Panel, EMD Millipore, Billerica, Mass.) as reported by us previously.^19 The following analytes were quantified: sCD40L, VEGF, TNF-β, TNF-α. TGF-α, RANTES, PDGF-AB/BB, PDGF-AA, MIP-1β, MIP-1α, MDC (CCL22), MCP-3, MCP-1, IP-10, IL-17A, IL-15, IL-13, IL-12 (p70), IL-12 (p40). IL-10, IL-9, IL-8, IL-7, IL-6, IL-5, IL-4, IL-3, IL-2, IL-1 ra, IL-1β, IL-1α, IFN-γ, IFN-α2, GRO, GM-CSF, G-CSF, fractalkine, Fit-3 ligand, FGF-2, eotaxin, EGF.

| Structure (SMILES) | cytokine and chemokine induction (in words) |
| --- | --- |
| CCCCNc1nc(N)nc(-c2ccccc2)c1CCCCN.Cl.Cl [Compound 32b, 5-(4-Aminobutyl)-N^4-butyl-6-phenylpyrimidine-2,4-diamine dihydrochloride] | significantly weaker |

system: CD80 expression in the monocytes (human whole blood); test: Flow-cytometric immunostimulation: CD80 upregulation in human whole blood; type: cell-based; details: 16 h, CD80-PE-Cy7 MFI
Method: Flow-Cytometric Immunostimulation Experiments:
Cell surface marker upregulation was determined by flow cytometry using protocols published by us previously. Briefly, heparin-anticoagulated whole blood samples were obtained by venipuncture from healthy human volunteers with informed consent and as per guidelines approved by the University of Minnesota Human Subjects Experimentation Committee. Serial dilutions of selected compounds were performed using a Bio-Tek Precision 2000 XS liquid handler in sterile 96-well polypropylene plates, to which were added 100 μL aliquots of anticoagulated whole human blood. The plates were incubated at 37° C. for 16 h. Negative (DMSO) controls were included in each experiment. The following fluorochrome-conjugated antibodies were used: CD14-FITC, CD40-APC, CD80-PE-Cy7, CD86-V450 (Becton-Dickinson Biosciences, San Jose, Calif.). Following incubation, 2.5 μg of each antibody was added to wells with a liquid handler, and incubated at 4° C. in the dark for 60 min. Following staining, erythrocytes were lysed and leukocytes fixed by mixing 200 μL of the samples in 800 μL pre-warmed Whole Blood Lyse/Fix Buffer (Becton-Dickinson Biosciences, San Jose, Calif.) in 96 deep-well plates. After washing the cells twice at 300 g for 10 minutes in RPMI, the cells were transferred to a 96-well plate. […]

| Structure (SMILES) | activity in upregulating CD80 |
| --- | --- |
| CCCCNc1nc(N)nc(C)c1I [Compound 4b, N^4-Butyl-5-iodo-6-methylpyrimidine-2,4-diamine] | 1.5 μg/mL and 5 μM |
